Measured values taken from patent publication US20240245711A1, “A 19-NOR C3,3-DISUBSTITUTED C21-N-PYRAZOLYL STEROID FOR THE TREATMENT OF MAJOR DEPRESSIVE DISORDER” (Sage Therapeutics, Inc., priority 2021, published 2024).
“And” between values parts separate entries of the source, which are not always exact repeats. Equal values may be shown once.

Test system: adult subjects with Major Depressive Disorder
Experiment: Phase 3 open-label 1-year study: need for re-treatment (number of and time to re-treatments)
Type: in vivo, human
Text: Secondary Objective: To assess the need for re-treatment with Compound (1) following initial treatment in adults with MDD currently experiencing an MDE over a 1-year period, and to assess the response of initial treatment and re-treatment(s) with Compound (1) following an initial 2-week treatment period in adults with MDD currently experiencing an MDE over a 1-year period.
Secondary Endpoints: The need for re-treatment with Compound (1) as assessed by: time to first re-treatment (Kaplan-Meier curves), number of subjects achieving the requirements for re-treatment, number of re-treatment cycles for each subject, the response of initial treatment and/or re-treatment as assessed by: change from baseline in the 17-item Hamilton Rating Scale for Depression (HAM-D) total score at the end of each 14-day treatment (initial and/or re-treatment) period, HAM-D response at the end of each 14-day treatment (initial and/or re-treatment) period, defined as a ≥50% reduction in HAM-D score from baseline, HAM-D remission at the end of each 14-day treatment (initial and/or re-treatment) period, defined as HAM-D total score≤7, Clinical Global Impression-Improvement (CGI-I) response, defined as “much improved” or “very much improved”, at the end of each 14-day treatment (initial and/or re-treatment) period, change from baseline in Clinical Global Impression-Severity (CGI-S) score at the end of each 14-day treatment (initial and/or re-treatment) period.
Subjects who continued in the Observation Period were monitored remotely via PHQ-9 assessment every two weeks. If PHQ-9 score was >=10 at any assessment, PHQ-9 assessment was switch to every week until the score came down below 10 or the subject was dosed with Compound (1) in a subsequent cycle, whichever was earlier. A subject was to come back to the site for HAM-D assessment within a week of PHQ-9 score >=10; if the HAM-D total score >=20 and at least 56 days had elapsed since the last dose of Compound (1), another dosing cycle of Compound (1) were to start. If any of these criteria were not met, the subject couldn't be treated with Compound (1) at that time. Without the trigger of PHQ-9>=10 the subject was to have a clinic visit every 8 weeks. A subject could have at most 5 cycles of treatment within a year. FIG. 2 is a depiction of the eligibility criteria of the study.
The cohorts pertaining to the different doses that the subjects received were defined as following: • 50 mg cohort: This cohort includes subjects who have initiated treatment with 50 mg and received re-treatment with 50 mg only. • 30 mg cohort: This cohort includes subjects who have initiated treatment with 30 mg regardless of the dose they have received in re-treatments. • Low dose cohort: This cohort includes subjects who have initiated treatment with 30 mg and received re-treatment with 30 mg only. • Dose switch cohort: This cohort includes subjects who have received initial treatment with 30 mg and at least one subsequent re-treatment with 50 mg. • Study Period X: starts on the date of the first dose of Compound (1) in cycle X and goes up to one day prior to the first dose of the next cycle. In some embodiments, X is any number from 1 to 5. • Treatment Period X: starts on the date of the first dose of Compound (1) in cycle X and goes up to one day after the last dose in cycle X. In some embodiments, X is any number from 1 to 5. • Treatment Cycle X: starts on the date of the first dose of Compound (1) in cycle X and goes up to 14 days after the last dose in cycle X. The treatment cycles may be denoted as C1-C5. • Observation period X: starts the day after Treatment Cycle X ends and goes up to one day prior to the start of next treatment cycle. In some embodiments, X is any number from 1 to 5.
Analysis Sets: The safety set was defined as all subjects who were administered study drug. The period-specific safety set includes subjects in the safety set who were administered study drug in the corresponding treatment cycle. […]

[1] = 50 mg Cohort (N = 146), Examples 2-3 cut-off
[2] = 50 mg Cohort FAS (146), one-year follow-up (Example 4)
[3] = 50 mg Cohort, Examples 2-3 cut-off
[4] = Cycle 3, 50 mg Cohort (FAS), 1 subject

SMILES: C[C@@]1(O)CC[C@H]2[C@H](CC[C@@H]3[C@@H]2CC[C@]2(C)[C@@H](C(=O)Cn4cc(C#N)cn4)CC[C@@H]32)C1 [Compound (1), 1-(2-((3R,5R,8R,9R,10S,13S,14S,17S)-3-hydroxy-3,13-dimethylhexadecahydro-1H-cyclopenta[a]phenanthren-17-yl)-2-oxoethyl)-1H-pyrazole-4-carbonitrile]
- Average (range) number of re-treatments per subject over 1-year follow-up (30 mg Cohort): 1.2 (0-4) and 1.2
- Average total number of treatments per subject (30 mg Cohort): 2.2
- Dosed in at least 1 re-treatment cycle, % of eligible (30 mg Cohort (472 eligible)): 279 (59.1%)
- Qualified to be retreated in at least 1 more cycle (HAM-D total score >= 20), % of eligible (30 mg Cohort (472 eligible)): 305 (64.6%)
- FAS Subjects Dosed in C2, n (%) of FAS (30 mg Cohort Overall): 279 (57.1%)
- FAS Subjects dosed in C3, n (%) of FAS (30 mg Cohort Overall): 154 (31.5%)
- FAS Subjects dosed in C4, n (%) of FAS (30 mg Cohort Overall): 96 (19.6%)
- FAS Subjects dosed in C5, n (%) of FAS (30 mg Cohort Overall): 43 (8.8%)
- Subjects with No re-treatment (Cycle 1), n (%) of FAS (30 mg cohort (N = 489)): 210 (42.9%)
- Subjects with Only 1 re-treatment (Cycle 2), n (%) of FAS (30 mg cohort (N = 489)): 125 (25.6%)
- Subjects with Only 2 re-treatment (Cycle 3), n (%) of FAS (30 mg cohort (N = 489)): 58 (11.9%)
- Subjects with Only 3 re-treatment (Cycle 4), n (%) of FAS (30 mg cohort (N = 489)): 53 (10.8%)
- Subjects with Only 4 re-treatment (Cycle 5), n (%) of FAS (30 mg cohort (N = 489)): 43 (8.8%) and 43 8.8%)
- Dosed in at least 1 re-treatment cycle, % of eligible (50 mg Cohort (122 eligible)): 26 (21.3%)
- Qualified to be retreated in at least 1 more cycle (HAM-D total score >= 20), % of eligible (50 mg Cohort (122 eligible)): 36 (29.5%)
- Subjects with No re-treatment (Cycle 1), n (%) of FAS [1]: 120 (82.2%)
- Subjects with Only 1 re-treatment (Cycle 2), n (%) of FAS [1]: 25 (17.1%)
- Subjects with Only 2 re-treatment (Cycle 3), n (%) of FAS [1]: 1 (0.7%)
- Subjects who received 1 treatment course in total [2]: 54.8%
- Subjects who received 2 treatment courses in total [2]: 24.7%
- Subjects who received 3 treatment courses in total [2]: 10.3%
- Subjects who received 4 treatment courses in total [2]: 6.8%
- Subjects who received 5 treatment courses in total [2]: 3.4%
- Subjects who received at most one additional treatment cycle [2]: 79.5%
- FAS Subjects Dosed in C2, n (%) of FAS [3]: 26 (17.8%)
- FAS Subjects dosed in C3, n (%) of FAS [3]: 1 (0.7%)
- Proportion with zero or at most 1 additional treatment cycle, by use of antidepressant therapy at baseline (50 mg Cohort, one-year follow-up (Example 4)): similar
- n/N: FAS subjects eligible and dosed in Cycle X / eligible for dosing in Cycle X (Cycle 2, 50 mg Cohort): 26/122
- Time to re-treatment since last dose in previous cycle, Mean (SD) (Cycle 2, 50 mg Cohort (FAS)): 70.5 (18.52) Days
- Time to re-treatment since last dose in previous cycle, Median (Cycle 2, 50 mg Cohort (FAS)): 62.5 days
- Time to re-treatment since last dose in previous cycle, Min - Max (Cycle 2, 50 mg Cohort (FAS)): 58 to 122 days
- n/N: FAS subjects eligible and dosed in Cycle X / eligible for dosing in Cycle X (Cycle 2, Dose Switch): 80/80
- Time to re-treatment since last dose in previous cycle, Mean (SD) (Cycle 2, Dose Switch (FAS)): 116.5 (70.26) Days
- Time to re-treatment since last dose in previous cycle, Median (Cycle 2, Dose Switch (FAS)): 91 days
- Time to re-treatment since last dose in previous cycle, Min - Max (Cycle 2, Dose Switch (FAS)): 58 to 318 days
- n/N: FAS subjects eligible and dosed in Cycle X / eligible for dosing in Cycle X (Cycle 2, Low Dose): 199/392
- Time to re-treatment since last dose in previous cycle, Mean (SD) (Cycle 2, Low Dose (FAS)): 99.5 (52.15) Days
- Time to re-treatment since last dose in previous cycle, Median (Cycle 2, Low Dose (FAS)): 78 days
- Time to re-treatment since last dose in previous cycle, Min - Max (Cycle 2, Low Dose (FAS)): 58 to 297 days
- n/N: FAS subjects eligible and dosed in Cycle X / eligible for dosing in Cycle X (Cycle 3, 50 mg Cohort): 1/4
- Time to re-treatment since last dose in previous cycle, Mean (SD) [4]: 58 (NA) Days and 58.0 (NA), 58.0, Days
- Time to re-treatment since last dose in previous cycle, Median [4]: 58 Days and 58.0 (NA), 58.0, Days
- Time to re-treatment since last dose in previous cycle, Min - Max [4]: 58-58 Days
- n/N: FAS subjects eligible and dosed in Cycle X / eligible for dosing in Cycle X (Cycle 3, Dose Switch): 71/76
- Time to re-treatment since last dose in previous cycle, Mean (SD) (Cycle 3, Dose Switch (FAS)): 92.5 (34.44) Days
- Time to re-treatment since last dose in previous cycle, Median (Cycle 3, Dose Switch (FAS)): 79 days
- Time to re-treatment since last dose in previous cycle, Min - Max (Cycle 3, Dose Switch (FAS)): 58 to 214 days
- n/N: FAS subjects eligible and dosed in Cycle X / eligible for dosing in Cycle X (Cycle 3, Low Dose): 83/166
- Time to re-treatment since last dose in previous cycle, Mean (SD) (Cycle 3, Low Dose (FAS)): 87.2 (34.97) Days
- Time to re-treatment since last dose in previous cycle, Median (Cycle 3, Low Dose (FAS)): 72 days
- Time to re-treatment since last dose in previous cycle, Min - Max (Cycle 3, Low Dose (FAS)): 52 to 217 days
- n/N: FAS subjects eligible and dosed in Cycle X / eligible for dosing in Cycle X (Cycle 4, Dose Switch): 53/63
- Time to re-treatment since last dose in previous cycle, Mean (SD) (Cycle 4, Dose Switch (FAS)): 69.9 (13.40) Days
- Time to re-treatment since last dose in previous cycle, Median (Cycle 4, Dose Switch (FAS)): 66 days
- Time to re-treatment since last dose in previous cycle, Min - Max (Cycle 4, Dose Switch (FAS)): 57 to 120 days
- n/N: FAS subjects eligible and dosed in Cycle X / eligible for dosing in Cycle X (Cycle 4, Low Dose): 43/74
- Time to re-treatment since last dose in previous cycle, Mean (SD) (Cycle 4, Low Dose (FAS)): 72.1 (17.67) Days
- Time to re-treatment since last dose in previous cycle, Median (Cycle 4, Low Dose (FAS)): 65 days
- Time to re-treatment since last dose in previous cycle, Min - Max (Cycle 4, Low Dose (FAS)): 57 to 113 days
- n/N: FAS subjects eligible and dosed in Cycle X / eligible for dosing in Cycle X (Cycle 5, Dose Switch): 23/45
- Time to re-treatment since last dose in previous cycle, Mean (SD) (Cycle 5, Dose Switch (FAS)): 61.4 (6.24) Days
